Measured values as given in PubChem BioAssay (NCI).
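Cultured in 96-well plates, cells were exposed to test compound for 48 hours across five concentrations. The concentration for full growth arrest is given as TGI.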

What was measured:
Test in all cases: NCI-60 cell line screen, 48 h
NCI-H23 lung = tested on: NCI-H23 lung
CCRF-CEM leukemia = tested on: CCRF-CEM leukemia
A549 NSCLC = tested on: A549 NSCLC
SN12C renal = tested on: SN12C renal
LOX IMVI melanoma = tested on: LOX IMVI melanoma
SK-OV-3 ovarian = tested on: SK-OV-3 ovarian
NCI-H522 lung = tested on: NCI-H522 lung
MDA-N = tested on: MDA-N
SF-539 CNS = tested on: SF-539 CNS
MALME-3M melanoma = tested on: MALME-3M melanoma
SNB-75 CNS = tested on: SNB-75 CNS
SK-MEL-5 melanoma = tested on: SK-MEL-5 melanoma
786-0 renal = tested on: 786-0 renal
HCT-15 colon = tested on: HCT-15 colon
EKVX NSCLC = tested on: EKVX NSCLC
SW-620 colon = tested on: SW-620 colon
MCF7 breast = tested on: MCF7 breast
HOP-62 NSCLC = tested on: HOP-62 NSCLC
SK-MEL-28 melanoma = tested on: SK-MEL-28 melanoma
SF-295 CNS = tested on: SF-295 CNS
HOP-92 NSCLC = tested on: HOP-92 NSCLC
M14 melanoma = tested on: M14 melanoma
NCI-H226 lung = tested on: NCI-H226 lung
U251 CNS = tested on: U251 CNS
HS 578T breast = tested on: HS 578T breast
MDA-MB-231 breast = tested on: MDA-MB-231 breast
OVCAR-8 ovarian = tested on: OVCAR-8 ovarian
DU-145 prostate = tested on: DU-145 prostate
OVCAR-3 ovarian = tested on: OVCAR-3 ovarian
ACHN renal = tested on: ACHN renal
IGROV1 ovarian = tested on: IGROV1 ovarian
UO-31 renal = tested on: UO-31 renal
SR leukemia = tested on: SR leukemia
HCC-2998 colon = tested on: HCC-2998 colon
HCT-116 colon = tested on: HCT-116 colon
K-562 leukemia = tested on: K-562 leukemia
NCI/ADR-RES ovarian = tested on: NCI/ADR-RES ovarian
SNB-19 CNS = tested on: SNB-19 CNS
COLO 205 colon = tested on: COLO 205 colon
HT29 colon = tested on: HT29 colon
BT-549 breast = tested on: BT-549 breast
UACC-62 melanoma = tested on: UACC-62 melanoma
MOLT-4 leukemia = tested on: MOLT-4 leukemia
TK-10 renal = tested on: TK-10 renal
KM12 colon = tested on: KM12 colon
SF-268 CNS = tested on: SF-268 CNS
OVCAR-4 ovarian = tested on: OVCAR-4 ovarian
PC-3 prostate = tested on: PC-3 prostate
T-47D breast = tested on: T-47D breast
NCI-H460 lung = tested on: NCI-H460 lung
A498 renal = tested on: A498 renal
MDA-MB-435 = tested on: MDA-MB-435
HL-60(TB) leukemia = tested on: HL-60(TB) leukemia
CAKI-1 renal = tested on: CAKI-1 renal
SK-MEL-2 melanoma = tested on: SK-MEL-2 melanoma
RPMI-8226 leukemia = tested on: RPMI-8226 leukemia
RXF 393 renal = tested on: RXF 393 renal
UACC-257 melanoma = tested on: UACC-257 melanoma
OVCAR-5 ovarian = tested on: OVCAR-5 ovarian
DMS 273 small cell lung = tested on: DMS 273 small cell lung
M19-MEL melanoma = tested on: M19-MEL melanoma
SNB-78 CNS = tested on: SNB-78 CNS
HOP-18 NSCLC = tested on: HOP-18 NSCLC
XF 498 CNS = tested on: XF 498 CNS
DLD-1 colon = tested on: DLD-1 colon
DMS 114 small cell lung = tested on: DMS 114 small cell lung
KM20L2 colon = tested on: KM20L2 colon
LXFL 529 NSCLC = tested on: LXFL 529 NSCLC

## CC(=O)O[C@H]1CC[C@H]2[C@@H]3CCC4C(C)=NNC(=O)C4[C@H]3CC[C@]12C (some centres not stated)
NCI-H23 lung
  TGI: > 100 µM
CCRF-CEM leukemia
  TGI: > 100 µM
A549 NSCLC
  TGI: > 100 µM
SN12C renal
  TGI: > 100 µM
LOX IMVI melanoma
  TGI: > 75.4 µM
SK-OV-3 ovarian
  TGI: > 100 µM
NCI-H522 lung
  TGI: > 86.7 µM
MDA-N
  TGI: > 100 µM
SF-539 CNS
  TGI: > 100 µM
MALME-3M melanoma
  TGI: > 100 µM
SNB-75 CNS
  TGI: 33.7 µM
SK-MEL-5 melanoma
  TGI: > 100 µM
786-0 renal
  TGI: > 100 µM
HCT-15 colon
  TGI: > 100 µM
EKVX NSCLC
  TGI: > 100 µM
SW-620 colon
  TGI: > 100 µM
MCF7 breast
  TGI: > 100 µM
HOP-62 NSCLC
  TGI: 57.6 µM
SK-MEL-28 melanoma
  TGI: > 100 µM
SF-295 CNS
  TGI: > 100 µM
HOP-92 NSCLC
  TGI: > 100 µM
M14 melanoma
  TGI: > 100 µM
NCI-H226 lung
  TGI: > 100 µM
U251 CNS
  TGI: > 100 µM
HS 578T breast
  TGI: 64.2 µM
MDA-MB-231 breast
  TGI: > 82.8 µM
OVCAR-8 ovarian
  TGI: > 100 µM
DU-145 prostate
  TGI: > 100 µM
OVCAR-3 ovarian
  TGI: > 100 µM
ACHN renal
  TGI: > 100 µM
IGROV1 ovarian
  TGI: > 79.4 µM
UO-31 renal
  TGI: > 100 µM
SR leukemia
  TGI: > 100 µM
HCC-2998 colon
  TGI: > 100 µM
HCT-116 colon
  TGI: > 100 µM
K-562 leukemia
  TGI: > 100 µM
NCI/ADR-RES ovarian
  TGI: > 100 µM
SNB-19 CNS
  TGI: > 82.9 µM
COLO 205 colon
  TGI: > 100 µM
HT29 colon
  TGI: > 100 µM
BT-549 breast
  TGI: > 69.7 µM
UACC-62 melanoma
  TGI: > 100 µM
MOLT-4 leukemia
  TGI: > 100 µM
TK-10 renal
  TGI: > 100 µM
KM12 colon
  TGI: > 100 µM
SF-268 CNS
  TGI: > 100 µM
OVCAR-4 ovarian
  TGI: > 100 µM
PC-3 prostate
  TGI: > 100 µM
T-47D breast
  TGI: > 100 µM
NCI-H460 lung
  TGI: > 100 µM
A498 renal
  TGI: > 100 µM
MDA-MB-435
  TGI: > 100 µM
HL-60(TB) leukemia
  TGI: > 100 µM
CAKI-1 renal
  TGI: > 100 µM
SK-MEL-2 melanoma
  TGI: > 100 µM
RPMI-8226 leukemia
  TGI: > 100 µM
RXF 393 renal
  TGI: > 100 µM
UACC-257 melanoma
  TGI: > 100 µM
OVCAR-5 ovarian
  TGI: > 100 µM

## O=C(/C=C/c1ccc([N+](=O)[O-])o1)N1CCN(Cc2ccccc2)CC1
NCI-H23 lung
  TGI: 18.7 µM
CCRF-CEM leukemia
  TGI: 27.4 µM
A549 NSCLC
  TGI: 35.2 µM
SN12C renal
  TGI: 21.3 µM
DMS 273 small cell lung
  TGI: 24 µM
LOX IMVI melanoma
  TGI: 26.6 µM
SK-OV-3 ovarian
  TGI: > 100 µM
NCI-H522 lung
  TGI: 8.16 µM
SF-539 CNS
  TGI: 19.4 µM
SNB-75 CNS
  TGI: 30.4 µM
M19-MEL melanoma
  TGI: 21.8 µM
SK-MEL-5 melanoma
  TGI: 22.4 µM
786-0 renal
  TGI: 26.1 µM
SNB-78 CNS
  TGI: 54.5 µM
HCT-15 colon
  TGI: 15.9 µM
EKVX NSCLC
  TGI: 38.2 µM
SW-620 colon
  TGI: 21.6 µM
HOP-62 NSCLC
  TGI: 34.6 µM
SK-MEL-28 melanoma
  TGI: 16.9 µM
SF-295 CNS
  TGI: 29.2 µM
HOP-18 NSCLC
  TGI: 37.1 µM
HOP-92 NSCLC
  TGI: 27.8 µM
M14 melanoma
  TGI: 16.7 µM
U251 CNS
  TGI: 28.1 µM
XF 498 CNS
  TGI: 30.4 µM
OVCAR-8 ovarian
  TGI: 28.4 µM
OVCAR-3 ovarian
  TGI: 31.7 µM
ACHN renal
  TGI: 28.3 µM
IGROV1 ovarian
  TGI: 32.1 µM
UO-31 renal
  TGI: 31.3 µM
SR leukemia
  TGI: 38.7 µM
HCC-2998 colon
  TGI: 29.3 µM
HCT-116 colon
  TGI: 22.7 µM
K-562 leukemia
  TGI: 26.2 µM
SNB-19 CNS
  TGI: 30.5 µM
HT29 colon
  TGI: 31.5 µM
UACC-62 melanoma
  TGI: 20.6 µM
MOLT-4 leukemia
  TGI: 38.7 µM
TK-10 renal
  TGI: 37.9 µM
KM12 colon
  TGI: 27.1 µM
SF-268 CNS
  TGI: 29.5 µM
DLD-1 colon
  TGI: 19.7 µM
OVCAR-4 ovarian
  TGI: 29.7 µM
DMS 114 small cell lung
  TGI: 27.4 µM
NCI-H460 lung
  TGI: 29.8 µM
A498 renal
  TGI: 29.2 µM
KM20L2 colon
  TGI: 24.3 µM
HL-60(TB) leukemia
  TGI: 18.4 µM
CAKI-1 renal
  TGI: 21.7 µM
LXFL 529 NSCLC
  TGI: 20.2 µM
RPMI-8226 leukemia
  TGI: 32.3 µM
RXF 393 renal
  TGI: 24.5 µM
UACC-257 melanoma
  TGI: 20.8 µM
OVCAR-5 ovarian
  TGI: 31.1 µM

## COc1c2nc(CCl)[nH]c(=O)c2c(OC)c2nc(CCl)[nH]c(=O)c12
NCI-H23 lung
  TGI: > 100 µM
CCRF-CEM leukemia
  TGI: > 100 µM
A549 NSCLC
  TGI: > 100 µM
SN12C renal
  TGI: > 100 µM
DMS 273 small cell lung
  TGI: > 100 µM
LOX IMVI melanoma
  TGI: > 100 µM
SK-OV-3 ovarian
  TGI: > 100 µM
NCI-H522 lung
  TGI: > 100 µM
SF-539 CNS
  TGI: > 100 µM
MALME-3M melanoma
  TGI: > 100 µM
SNB-75 CNS
  TGI: > 100 µM
M19-MEL melanoma
  TGI: > 100 µM
SK-MEL-5 melanoma
  TGI: > 100 µM
786-0 renal
  TGI: > 100 µM
SNB-78 CNS
  TGI: > 100 µM
HCT-15 colon
  TGI: > 100 µM
SW-620 colon
  TGI: > 100 µM
HOP-62 NSCLC
  TGI: > 100 µM
SK-MEL-28 melanoma
  TGI: > 100 µM
SF-295 CNS
  TGI: > 100 µM
HOP-18 NSCLC
  TGI: > 100 µM
HOP-92 NSCLC
  TGI: > 100 µM
M14 melanoma
  TGI: > 100 µM
NCI-H226 lung
  TGI: > 100 µM
U251 CNS
  TGI: > 100 µM
XF 498 CNS
  TGI: > 100 µM
OVCAR-8 ovarian
  TGI: > 100 µM
OVCAR-3 ovarian
  TGI: > 100 µM
ACHN renal
  TGI: > 100 µM
IGROV1 ovarian
  TGI: > 100 µM
UO-31 renal
  TGI: > 100 µM
HCT-116 colon
  TGI: > 100 µM
K-562 leukemia
  TGI: > 100 µM
SNB-19 CNS
  TGI: > 100 µM
COLO 205 colon
  TGI: > 100 µM
HT29 colon
  TGI: > 100 µM
UACC-62 melanoma
  TGI: > 100 µM
MOLT-4 leukemia
  TGI: > 100 µM
TK-10 renal
  TGI: > 100 µM
KM12 colon
  TGI: > 100 µM
SF-268 CNS
  TGI: > 100 µM
DLD-1 colon
  TGI: > 100 µM
OVCAR-4 ovarian
  TGI: > 100 µM
DMS 114 small cell lung
  TGI: > 100 µM
NCI-H460 lung
  TGI: > 100 µM
KM20L2 colon
  TGI: > 100 µM
HL-60(TB) leukemia
  TGI: > 100 µM
CAKI-1 renal
  TGI: > 100 µM
LXFL 529 NSCLC
  TGI: > 100 µM
SK-MEL-2 melanoma
  TGI: > 100 µM
RPMI-8226 leukemia
  TGI: > 100 µM
RXF 393 renal
  TGI: > 100 µM
UACC-257 melanoma
  TGI: > 100 µM
OVCAR-5 ovarian
  TGI: > 100 µM
